Read-outs that look alike come from different tables or passages of the source.
Experiments:
[1] = tested on: PC12 cells that express mutant G93A SOD1; assay: Mutant SOD1-induced cytotoxicity protection assay; details: for Corresponding % viability: rat, 48 h
Description: This idea was tested by examining the sensitivity of PC12 cells to SOD1 aggregates in the presence and absence of proteasome inhibitor MG132. PC12 cells expressing no SOD1, wild type SOD1, G85R SOD1 or G93A SOD1 were grown with or without MG132 (FIG. 1).
PC12 cells expressing G93A SOD1 were treated with 100 nM MG132 with or without co-treatment with geldanamycin or radicicol.

[2] = tested on: proteasome activity (Ubi-YFP degradation); assay: Proteasome activity assay (Ubi-YFP in HeLa cells); type: cell-based; details: 25 μM compound, 1 μM MG132
Description: FIG. 7. Arylsulfanyl pyrazolones prevent MG132-induced accumulation of Ubi-YFP. HeLa cells were co-transfected with Ubi-YFP and CMV-CFP plasmids, treated with 1 μM MG132 and 25 μM arylsulfanyl pyrazolones and Ubi-YFP fluorescence intensity normalized to CFP.
Since the CMB-003299 cytotoxicity of SOD1 protein aggregates may involve inhibition of proteasome activity, compounds that stimulate proteasome activity could reverse or prevent mutant SOD1-induced cytotoxicity. Thus, active compounds were tested for the ability to stimulate proteasome activity using a cell line expressing ubiquitin-conjugated YFP [Ubi-YFP 74]. In these cells, increased proteasome activity causes increased degradation of Ubi-YFP and decreased YFP fluorescence. Conversely, compounds that inhibit proteasome activity increase accumulation of Ubi-YFP and enhanced YFP fluorescence. As expected, MG132 augments YFP fluorescence intensity ˜3-fold compared to untreated controls (FIG. 7). […] Protein aggregates are present in the absence of MG132 and aggregation is suppressed following treatment with a provided compound.
HeLa cells (20,000/chamber) were plated on 8 chambered Tissue-tek coverglass pretreated with 1 mg/ml poly-D-lysine and allowed to adhere for 18 h at 37° C./5% CO2. Cells were transfected with 0.2 μg each CMV-CFP and Ubi-YFP plasmids using Lipofectamine 2000 according to manufacturer's instructions. Cells were allowed to express CFP and Ubi-YFP for 18 h followed by a 6 h incubation with test compounds (25 μM). MG132 (1 μM) was added for a final 18 h incubation and Ubi-YFP degradation assessed by fluorescence microscopy. Fluorescence intensity of CFP and YFP was calculated on a cell-by-cell basis from captured images using AxioVision software (Zeiss). YFP fluorescence was normalized to CFP fluorescence.

Aqueous solubility = type: physicochemical; details: no precipitation at the highest concentration
Description: Solubility: Because compounds are stored in DMSO, it is necessary to determine aqueous solubility of initial hit compounds and their analogs. High solubility in aqueous solution is necessary for high GI absorption, bioavailability, and for chemical formulation. Compounds should be soluble in aqueous solution at >10 μg/ml. Solubility of >50 μg/ml is preferred.

[3] = In vitro microsomal stability, mouse; type: in vitro ADME; details: Mouse; for microsomal CLint: mouse, liver microsomes, read-out: CLint (microsomal intrinsic clearance)
Description: (§1) Metabolism (microsome, S9 fraction, CYP450): Liver Cytochrome P450 (CYP450) enzymes are the major route for xenobiotic metabolism and microsomal and hepatocyte stability is the best predictor of pharmacokinetic half-life. Cross-species comparisons of metabolism in liver microsomes can predict potential issues with liver toxicity in humans. Selected active compounds are tested in liver microsomes from efficacy species (mouse), toxicity species (rat, dog, monkey), and humans for metabolic stability.
(§2) CMB-087229 was sent for an evaluation of its in vitro ADME properties.
(§3) Two possible amines, secondary and tertiary AAP analogues, were initially screened in the protection assay (FIG. 30) and for in vitro microsomal stability (Table 1) and Caco-2 permeability (Table 2). […] The solubilities of 2 and 3 were good in aqueous media (≧150 μM), and no precipitation occurred at the highest concentration. The in vitro plasma half-life for both compounds was >60 min.

Caco-2 = assay: In vitro Caco-2 permeability; type: in vitro ADME
Description: General Permeability: High membrane permeability is required for effective GI absorption and optimal bioavailability. Passive permeability is typically assessed in the PAMPA artificial membrane assay (Kansy et al., J. Med. Chem. 2002, 45(8), 1712-1722). Cell-based permeability determinations using the Caco-2 cell assay are more resource intensive but more predictive of active transport or efflux in vivo (Artursson et al., Adv. Drug. Deliv. Rev. 2001, 46(1-3), 27-43). Caco-2 assays are performed as needed during SAR development.

[4] = In vitro plasma stability; type: in vitro ADME
Description: Plasma stability: Plasma stability of active compounds is assessed in efficacy species (mouse), toxicity species (rat, dog, monkey), and human cells.

[5] = In vitro microsomal stability, human; type: in vitro ADME; details: Human
Description: as §1, §2, §3

cortical neurons = assay: Cortical neuron assay; type: cell-based
Description: Selected compounds were tested with cortical neurons—a useful preliminary step prior to the expensive and time-consuming ALS mouse model studies. Although long linker compound 24 and cyclic linker compound 27 are active in the PC12 assay, they are not active with cortical neurons. Compound 3 gave better results than the ether counterpart (1), recovering 100% neuronal activity at 10 μM concentration.

[6] = type: in vitro ADME; details: male, Sprague Dawley, rat, pH 7.4
[7] = tested on: PC12 cells expressing G93A SOD1; assay: Sensitivity of PC12 cells to proteasome inhibitor, calcein-AM viability; type: cell-based; details: compared with MG132
Description: FIGS. 1A-C. […] Cell survival was determined using the viability stain calcein-AM.

[8] = Rattus norvegicus, PC-12, read-out: Best EC50, PC12 G93A SOD1 cells, MG132, calcein-AM viability
[9] = Rattus norvegicus, PC-12, read-out: EC50 after Normalization, normalised with the corresponding 3299 EC50

Cc1cc(SCc2cc(=O)[nH][nH]2)c(C)cc1Cl [CMB-003299]
EC50 [1, 8]: 0.4 µM | effect on MG132-induced Ubi-YFP fluorescence [2]: strongly inhibit

O=c1cc(COc2cccc(-c3ccccc3)c2)[nH][nH]1 [CMB-087643-1]
EC50 [1, 8]: 8.53 µM | EC50 [1, 9]: 2.84 µM | Corresponding % viability [1]: 96%

O=c1cc(COc2cc(-c3ccccc3)cc(-c3ccccc3)c2)[nH][nH]1 [CMB-087644-1]
EC50 [1, 8]: 11.1 µM | EC50 [1, 9]: 3.7 µM | Corresponding % viability [1]: 68%

O=c1cc(CN(c2cc(Cl)cc(Cl)c2)S(=O)(=O)c2ccccc2)[nH][nH]1 [CMB-087645-1]
EC50 [1, 8]: 9.04 µM | EC50 [1, 9]: 1.43 µM | Corresponding % viability [1]: 111%

O=c1cc(CNc2cc(Cl)cc(Cl)c2)[nH][nH]1 [CMB-087650-1]
EC50 [1, 8]: 2.11 µM | EC50 [1, 9]: 0.33 µM | Corresponding % viability [1]: 128%

O=c1cc(CNc2cc(Cl)cc(Cl)c2)[nH][nH]1 [Compound 2, 5-((3,5-Dichlorophenylamino)methyl)-1H-pyrazol-3(2H)-one, reference compound]
solubility in aqueous media (Aqueous solubility): ≥ 150 µM | T1/2 ([3]; NADPH-absent): 1.67 h | T1/2 ([3]; NADPH-dependent): 0.5 h | microsomal CLint ([3]; NADPH-absent): 23 µL/min/mg | microsomal CLint ([3]; NADPH-dependent): 78 µL/min/mg | Efflux ratio (B→A)/(A→B) (Caco-2): 47.1 | Papp (A→B) (Caco-2): 0.6 10^−6 cm/s | Papp (B→A) (Caco-2): 28.1 10^−6 cm/s | in vitro plasma half-life [4]: > 1 h | T1/2 ([5]; NADPH-absent): >3 h | T1/2 ([5]; NADPH-dependent): 1.58 h | microsomal CLint ([5]; liver microsomes, NADPH-dependent, read-out: CLint (microsomal intrinsic clearance)): 24 µL/min/mg

CN(CCCc1cc(=O)[nH][nH]1)c1cc(Cl)cc(Cl)c1 [Compound 24, 5-(3-((3,5-Dichlorophenyl)(methyl)amino)propyl)-1H-pyrazol-3(2H)-one]
activity in the cytotoxicity protection assay, in words [1]: active | activity with cortical neurons, in words (cortical neurons): not active

O=c1[nH][nH]c2c1CN(c1cc(Cl)cc(Cl)c1)CC2 [Compound 27, 5-(3,5-Dichlorophenyl)-4,5,6,7-tetrahydro-1H-pyrazolo[4,3-c]pyridin-3(2H)-one]
activity in the cytotoxicity protection assay, in words [1]: active | activity with cortical neurons, in words (cortical neurons): not active

CN(Cc1cc(=O)n(Cc2ccccc2)[nH]1)c1cc(Cl)cc(Cl)c1 [Compound 29, 2-Benzyl-5-(((3,5-dichlorophenyl)(methyl)amino)methyl)-1H-pyrazol-3(2H)-one]
activity in the cytotoxicity protection assay, in words [1]: comparable in activity to parent compound 3

CN(Cc1cc(=O)n(C)[nH]1)c1cc(Cl)cc(Cl)c1 [Compound 30, 5-(((3,5-Dichlorophenyl)(methyl)amino)methyl)-2-methyl-1H-pyrazol-3(2H)-one]
activity in the cytotoxicity protection assay, in words [1]: comparable in activity to parent compound 3

CN(Cc1cc(=O)[nH]n1C)c1cc(Cl)cc(Cl)c1 [Compound 31, 5-(((3,5-Dichlorophenyl)(methyl)amino)methyl)-1-methyl-1H-pyrazol-3(2H)-one]
activity in the cytotoxicity protection assay, in words [1]: devoid of activity

Cc1c(CN(C)c2cc(Cl)cc(Cl)c2)n(C)n(C)c1=O [Compound 32, 5-(((3,5-Dichlorophenyl)(methyl)amino)methyl)-1,2,4-trimethyl-1H-pyrazol-3(2H)-one]
activity in the cytotoxicity protection assay, in words [1]: devoid of activity

CN(Cc1cc(=O)n(C)n1C)c1cc(Cl)cc(Cl)c1 [Compound 33, 5-(((3,5-Dichlorophenyl)(methyl)amino)methyl)-1,2-dimethyl-1H-pyrazol-3(2H)-one]
activity in the cytotoxicity protection assay, in words [1]: devoid of activity

CN1N=C(CN(C)c2cc(Cl)cc(Cl)c2)C(C)(C)C1=O [Compound 34, 3-(((3,5-Dichlorophenyl)(methyl)amino)methyl)-1,4,4-trimethyl-1H-pyrazol-5(4H)-one]
activity in the cytotoxicity protection assay, in words [1]: devoid of activity

Cc1cc(-c2ccccc2)nnc1NCCN1CCOCC1 [Mina, Minaprine, reference compound]
% Mean ± S.E. ([6]; 0 min, 5 μM): 100 ± 11.5% | RR Mean (Response Ratio) ([6]; 0 min, 5 μM): 0.711 | % Mean ± S.E. ([6]; 0 min, 15 μM): 100 ± 7.11% | RR Mean (Response Ratio) ([6]; 0 min, 15 μM): 22.88 | % Mean ± S.E. ([6]; 20 min, 15 μM): 59.2 ± 14.9% | RR Mean (Response Ratio) ([6]; 20 min, 15 μM): 13.54 | % Mean ± S.E. ([6]; 40 min, 5 μM): 45.2 ± 8.1^ % | RR Mean (Response Ratio) ([6]; 40 min, 5 μM): 0.321

O=c1cc(CS(=O)(=O)c2ccc(Cl)cc2)[nH][nH]1 [TC-II-70]
% Mean ± S.E. ([6]; 0 min, 15 μM): 100 ± 12.6% | RR Mean (Response Ratio) ([6]; 0 min, 15 μM): 0.237 | % Mean ± S.E. ([6]; 20 min, 15 μM): 109 ± 13.3% | RR Mean (Response Ratio) ([6]; 20 min, 15 μM): 0.261 | % Mean ± S.E. ([6]; 40 min, 15 μM): 84.8 ± 21.8% | RR Mean (Response Ratio) ([6]; 40 min, 15 μM): 0.201

O=c1cc(CSCc2ccc(Cl)cc2)[nH][nH]1 [TC-II-123]
EC50 [1, 8]: 4.2 µM

O=c1cc(CSCCOc2ccccc2)[nH][nH]1 [TC-II-140]
EC50 ([1]; read-out: Best EC50, PC12 G93A SOD1 cells, MG132, calcein-AM viability): 6.2 µM

CC(=O)CC(c1ccccc1)c1c(O)c2ccccc2oc1=O (stereo not shown) [War, warfarin, reference compound]
% Mean ± S.E. ([6]; 0 min, 15 μM): 100 ± 7.75% | % Mean ± S.E. ([6]; 60 min, 15 μM): 96.1 ± 7.66%

CC(C)C[C@H](NC(=O)[C@H](Cc1ccccc1)NC(=O)c1cnccn1)B(O)O [bortezomib]
sensitivity to proteasome inhibition, in words [7]: Qualitatively similar results

From patent publication US9145424B2, “Treatment of amyotrophic lateral sclerosis” (Northwestern University, priority 2008, dated 2015)
